Test results: the kinase profiling compilation of Christmann-Franck et al. (2016)
One block for each molecule: values may come before it.

Experiments:
[1] = target: LRRK2 (human) (UniProt Q5S007); test: HTRF; conditions: ATP 100 µM
[2] = target: LRRK2 (human), Q5S007 [G2019S]; test: HTRF; conditions: ATP 100 µM
[3] = target: ABL1 (human) (UniProt P00519); test: SelectScreen, TR FRET; conditions: compound 10.0 µM
[4] = target: AKT1 (human) (UniProt P31749); test: SelectScreen, TR FRET
[5] = target: AURKA (human) (UniProt O14965); test: SelectScreen, TR FRET; conditions: compound 10.0 µM
[6] = target: CAMK2A (human) (UniProt Q9UQM7); test: SelectScreen, TR FRET
[7] = target: CDK1 CCNB1 (human) (UniProt P06493+P14635); test: SelectScreen, TR FRET; conditions: compound 10.0 µM
[8] = target: CDK2 CCNA2 (human) (UniProt P24941+P20248); test: SelectScreen, TR FRET
[9] = target: CDK5 CDK5R1 p25 (human) (UniProt Q15078+Q00535); test: SelectScreen, TR FRET
[10] = target: CHEK1 (human) (UniProt O14757); test: SelectScreen, TR FRET; conditions: compound 10.0 µM
[11] = target: CLK1 (human) (UniProt P49759); test: SelectScreen, TR FRET; conditions: compound 10.0 µM
[12] = target: CSF1R (human) (UniProt P07333); test: SelectScreen, TR FRET; conditions: compound 10.0 µM
[13] = target: DYRK1B (human) (UniProt Q9Y463); test: SelectScreen, TR FRET; conditions: compound 10.0 µM
[14] = target: ERBB4 (human) (UniProt Q15303); test: SelectScreen, TR FRET
[15] = target: FLT3 (human) (UniProt P36888); test: SelectScreen, TR FRET
[16] = target: GSK3B (human) (UniProt P49841); test: SelectScreen, TR FRET
[17] = target: INSR (human) (UniProt P06213); test: SelectScreen, TR FRET
[18] = target: IRAK4 (human) (UniProt Q9NWZ3); test: SelectScreen, TR FRET
[19] = target: JAK1 JH1 JH2 (human) (UniProt P23458); test: SelectScreen, TR FRET
[20] = target: LCK (human) (UniProt P06239); test: SelectScreen, TR FRET
[21] = target: LRRK2 (human) (UniProt Q5S007); test: SelectScreen, TR FRET; conditions: compound 10.0 µM
[22] = target: MAP3K7 TAB1 (human) (UniProt Q15750+O43318); test: SelectScreen, TR FRET
[23] = target: MAPK1 (human) (UniProt P28482); test: SelectScreen, TR FRET
[24] = target: MAPK10 (human) (UniProt P53779); test: SelectScreen, TR FRET
[25] = target: MARK2 (human) (UniProt Q7KZI7); test: SelectScreen, TR FRET; conditions: compound 10.0 µM
[26] = target: PAK4 (human) (UniProt O96013); test: SelectScreen, TR FRET; conditions: compound 10.0 µM
[27] = target: PDGFRA (human) (UniProt P16234); test: SelectScreen, TR FRET
[28] = target: PIK3CA PIK3R1 (human) (UniProt P27986+P42336); test: SelectScreen, TR FRET
[29] = target: PLK1 (human) (UniProt P53350); test: SelectScreen, TR FRET
[30] = target: PLK2 (human) (UniProt Q9NYY3); test: SelectScreen, TR FRET; conditions: compound 10.0 µM
[31] = target: PLK3 (human) (UniProt Q9H4B4); test: SelectScreen, TR FRET
[32] = target: PRKACA (human) (UniProt P17612); test: SelectScreen, TR FRET; conditions: compound 10.0 µM
[33] = target: PRKCB1 (human) (UniProt P05771); test: SelectScreen, TR FRET
[34] = target: PTK2B (human) (UniProt Q14289); test: SelectScreen, TR FRET
[35] = target: RAF1 (human) (UniProt P04049); test: SelectScreen, TR FRET
[36] = target: RET (human) (UniProt P07949); test: SelectScreen, TR FRET; conditions: compound 10.0 µM
[37] = target: RIPK2 (human) (UniProt O43353); test: SelectScreen, TR FRET; conditions: compound 10.0 µM
[38] = target: ROCK2 (human) (UniProt O75116); test: SelectScreen, TR FRET
[39] = target: STK16 (human) (UniProt O75716); test: SelectScreen, TR FRET
[40] = target: STK3 (human) (UniProt Q13188); test: SelectScreen, TR FRET
[41] = target: SYK (human) (UniProt P43405); test: SelectScreen, TR FRET; conditions: compound 10.0 µM
[42] = target: TTK (human) (UniProt P33981); test: SelectScreen, TR FRET

Chain of MAPK1 (human) (P28482 whole entry, looked up): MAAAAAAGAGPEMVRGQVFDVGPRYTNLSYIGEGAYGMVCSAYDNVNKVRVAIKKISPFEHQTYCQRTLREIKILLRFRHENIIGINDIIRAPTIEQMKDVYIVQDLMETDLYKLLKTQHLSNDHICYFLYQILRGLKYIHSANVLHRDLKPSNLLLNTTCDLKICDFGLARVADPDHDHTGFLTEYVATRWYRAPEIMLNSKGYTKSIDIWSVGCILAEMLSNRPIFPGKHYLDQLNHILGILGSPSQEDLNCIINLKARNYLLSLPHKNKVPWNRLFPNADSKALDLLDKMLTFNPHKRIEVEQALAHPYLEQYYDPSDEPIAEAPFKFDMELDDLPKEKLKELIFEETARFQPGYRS
Chain of STK16 (human) (O75716 whole entry, looked up): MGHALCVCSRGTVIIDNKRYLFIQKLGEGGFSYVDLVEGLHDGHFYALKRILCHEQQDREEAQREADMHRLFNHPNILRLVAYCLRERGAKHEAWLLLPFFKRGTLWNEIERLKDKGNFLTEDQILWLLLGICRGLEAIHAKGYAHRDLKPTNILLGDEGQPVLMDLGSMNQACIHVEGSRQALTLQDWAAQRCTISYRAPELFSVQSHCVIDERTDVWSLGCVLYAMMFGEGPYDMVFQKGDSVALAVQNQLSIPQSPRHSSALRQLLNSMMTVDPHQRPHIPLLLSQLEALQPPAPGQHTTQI
Chain of RAF1 (human) (P04049 whole entry, looked up): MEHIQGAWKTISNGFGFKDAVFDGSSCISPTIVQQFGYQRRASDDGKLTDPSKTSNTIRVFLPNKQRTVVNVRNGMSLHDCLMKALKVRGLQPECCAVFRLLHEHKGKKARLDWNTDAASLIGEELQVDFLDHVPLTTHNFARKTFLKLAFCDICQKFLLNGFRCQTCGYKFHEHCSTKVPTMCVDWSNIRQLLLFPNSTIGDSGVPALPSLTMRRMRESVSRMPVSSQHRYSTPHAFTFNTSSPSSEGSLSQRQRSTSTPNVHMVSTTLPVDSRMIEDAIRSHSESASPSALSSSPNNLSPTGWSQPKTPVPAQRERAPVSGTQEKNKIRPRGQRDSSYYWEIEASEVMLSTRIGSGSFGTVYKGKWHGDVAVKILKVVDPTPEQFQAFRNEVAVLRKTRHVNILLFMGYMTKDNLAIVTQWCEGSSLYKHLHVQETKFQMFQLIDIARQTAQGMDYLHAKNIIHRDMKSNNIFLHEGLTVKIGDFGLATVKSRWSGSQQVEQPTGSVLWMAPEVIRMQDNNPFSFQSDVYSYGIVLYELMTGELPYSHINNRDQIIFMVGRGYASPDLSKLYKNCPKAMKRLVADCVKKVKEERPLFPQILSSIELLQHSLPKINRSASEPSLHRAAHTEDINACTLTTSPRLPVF
Chain of MAPK10 (human) (P53779 whole entry, looked up): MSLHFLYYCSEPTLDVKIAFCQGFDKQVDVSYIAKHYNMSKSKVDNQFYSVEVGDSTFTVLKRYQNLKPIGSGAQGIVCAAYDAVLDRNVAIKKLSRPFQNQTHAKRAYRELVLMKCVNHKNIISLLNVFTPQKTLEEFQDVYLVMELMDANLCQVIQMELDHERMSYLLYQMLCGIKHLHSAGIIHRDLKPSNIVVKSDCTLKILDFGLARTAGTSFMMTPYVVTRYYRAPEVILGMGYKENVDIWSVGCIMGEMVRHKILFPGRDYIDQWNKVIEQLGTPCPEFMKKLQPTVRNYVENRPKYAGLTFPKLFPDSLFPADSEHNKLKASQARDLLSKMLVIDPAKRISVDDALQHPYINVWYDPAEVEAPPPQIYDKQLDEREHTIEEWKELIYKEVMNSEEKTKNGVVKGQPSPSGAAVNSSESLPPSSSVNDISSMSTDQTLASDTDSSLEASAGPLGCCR
Chain of LRRK2 (human) (Q5S007 whole entry, looked up): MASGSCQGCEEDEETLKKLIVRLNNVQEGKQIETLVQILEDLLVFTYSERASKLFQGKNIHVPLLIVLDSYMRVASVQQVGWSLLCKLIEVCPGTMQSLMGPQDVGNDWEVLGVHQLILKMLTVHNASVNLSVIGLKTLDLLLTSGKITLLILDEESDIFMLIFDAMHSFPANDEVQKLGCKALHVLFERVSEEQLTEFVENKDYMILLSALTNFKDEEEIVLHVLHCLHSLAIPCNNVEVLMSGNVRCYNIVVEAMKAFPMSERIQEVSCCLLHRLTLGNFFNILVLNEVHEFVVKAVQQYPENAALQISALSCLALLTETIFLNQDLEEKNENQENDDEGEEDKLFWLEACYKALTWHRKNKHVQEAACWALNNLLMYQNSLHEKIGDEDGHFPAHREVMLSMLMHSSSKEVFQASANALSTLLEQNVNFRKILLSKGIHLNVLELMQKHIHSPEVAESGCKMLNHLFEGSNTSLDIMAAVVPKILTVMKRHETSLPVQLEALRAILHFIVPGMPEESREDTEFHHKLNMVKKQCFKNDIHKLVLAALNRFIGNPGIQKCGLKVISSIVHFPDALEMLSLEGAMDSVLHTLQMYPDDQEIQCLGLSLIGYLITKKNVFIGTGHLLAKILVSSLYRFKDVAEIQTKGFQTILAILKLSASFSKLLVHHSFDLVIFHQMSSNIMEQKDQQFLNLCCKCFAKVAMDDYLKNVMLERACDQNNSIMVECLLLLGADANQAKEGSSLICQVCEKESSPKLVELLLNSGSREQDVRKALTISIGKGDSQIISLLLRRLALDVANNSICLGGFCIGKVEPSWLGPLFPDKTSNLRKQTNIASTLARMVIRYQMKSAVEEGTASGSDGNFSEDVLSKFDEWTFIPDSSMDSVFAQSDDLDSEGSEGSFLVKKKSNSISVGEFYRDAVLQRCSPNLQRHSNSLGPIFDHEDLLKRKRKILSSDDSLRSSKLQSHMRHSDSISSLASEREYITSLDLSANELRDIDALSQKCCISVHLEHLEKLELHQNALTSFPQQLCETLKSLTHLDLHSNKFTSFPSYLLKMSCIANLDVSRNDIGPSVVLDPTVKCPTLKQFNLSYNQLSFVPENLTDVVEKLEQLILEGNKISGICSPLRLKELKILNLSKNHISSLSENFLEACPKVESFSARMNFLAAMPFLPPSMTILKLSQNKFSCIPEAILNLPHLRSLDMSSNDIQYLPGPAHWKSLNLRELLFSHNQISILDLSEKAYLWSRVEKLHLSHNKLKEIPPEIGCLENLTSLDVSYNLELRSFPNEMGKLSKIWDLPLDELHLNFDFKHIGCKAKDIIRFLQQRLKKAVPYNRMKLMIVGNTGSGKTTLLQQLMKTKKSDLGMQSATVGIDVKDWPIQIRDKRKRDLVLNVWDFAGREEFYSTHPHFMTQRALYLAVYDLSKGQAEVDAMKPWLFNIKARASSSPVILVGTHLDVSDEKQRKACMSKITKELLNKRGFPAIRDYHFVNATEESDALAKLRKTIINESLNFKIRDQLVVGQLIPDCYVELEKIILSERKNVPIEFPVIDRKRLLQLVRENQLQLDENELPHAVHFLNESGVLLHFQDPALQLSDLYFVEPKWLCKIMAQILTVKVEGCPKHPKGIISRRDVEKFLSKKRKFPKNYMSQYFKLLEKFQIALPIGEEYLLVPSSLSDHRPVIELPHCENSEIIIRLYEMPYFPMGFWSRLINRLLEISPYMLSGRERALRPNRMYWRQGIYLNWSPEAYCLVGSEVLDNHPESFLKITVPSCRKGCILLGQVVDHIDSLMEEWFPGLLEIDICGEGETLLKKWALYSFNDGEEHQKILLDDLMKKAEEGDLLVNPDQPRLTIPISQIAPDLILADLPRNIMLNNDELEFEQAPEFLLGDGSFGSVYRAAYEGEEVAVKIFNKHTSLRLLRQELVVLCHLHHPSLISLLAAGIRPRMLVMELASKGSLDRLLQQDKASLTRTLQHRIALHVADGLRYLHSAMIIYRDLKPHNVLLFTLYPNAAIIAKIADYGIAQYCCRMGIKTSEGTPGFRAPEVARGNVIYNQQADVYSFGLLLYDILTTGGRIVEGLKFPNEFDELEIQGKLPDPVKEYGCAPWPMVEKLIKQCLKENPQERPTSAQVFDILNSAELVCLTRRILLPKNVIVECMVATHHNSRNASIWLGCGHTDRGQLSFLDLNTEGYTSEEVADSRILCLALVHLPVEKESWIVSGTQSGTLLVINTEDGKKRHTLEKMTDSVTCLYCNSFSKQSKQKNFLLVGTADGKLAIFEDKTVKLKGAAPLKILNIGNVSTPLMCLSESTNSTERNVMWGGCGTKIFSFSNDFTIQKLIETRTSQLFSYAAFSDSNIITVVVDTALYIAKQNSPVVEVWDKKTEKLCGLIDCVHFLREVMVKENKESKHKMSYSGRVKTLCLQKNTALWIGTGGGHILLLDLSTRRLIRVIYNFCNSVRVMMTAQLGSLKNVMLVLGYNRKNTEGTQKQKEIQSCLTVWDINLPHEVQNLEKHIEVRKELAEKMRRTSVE
Chain of PLK3 (human) (Q9H4B4 whole entry, looked up): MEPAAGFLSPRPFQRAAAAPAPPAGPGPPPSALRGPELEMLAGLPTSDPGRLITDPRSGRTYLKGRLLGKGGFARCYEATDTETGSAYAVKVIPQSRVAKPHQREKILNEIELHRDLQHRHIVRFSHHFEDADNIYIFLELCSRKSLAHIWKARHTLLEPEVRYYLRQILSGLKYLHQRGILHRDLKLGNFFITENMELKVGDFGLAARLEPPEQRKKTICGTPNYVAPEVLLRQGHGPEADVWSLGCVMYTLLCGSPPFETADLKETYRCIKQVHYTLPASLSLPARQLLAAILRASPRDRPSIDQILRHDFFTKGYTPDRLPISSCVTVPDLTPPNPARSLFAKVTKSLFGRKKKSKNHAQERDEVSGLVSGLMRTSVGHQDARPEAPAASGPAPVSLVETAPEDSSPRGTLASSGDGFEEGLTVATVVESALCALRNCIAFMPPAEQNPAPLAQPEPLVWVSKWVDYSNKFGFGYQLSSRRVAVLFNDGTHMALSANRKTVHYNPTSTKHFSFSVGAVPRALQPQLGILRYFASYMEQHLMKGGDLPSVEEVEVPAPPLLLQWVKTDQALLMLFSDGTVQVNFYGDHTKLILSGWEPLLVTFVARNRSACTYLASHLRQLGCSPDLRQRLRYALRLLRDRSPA
Chain of LRRK2 (human), Q5S007 [G2019S] (Q5S007 whole entry G2019S, looked up): as the sequence (Q5S007 whole entry, looked up) above, with G2019S counted along it

IC50 [1]: 48 nM | IC50 [2]: 27 nM | inhibition [3]: 29.9% | inhibition ([4]; compound 10.0 µM): -1.71% | inhibition [5]: 66.7% | inhibition ([6]; compound 10.0 µM): 29.7% | inhibition [7]: 11.7% | inhibition ([8]; compound 10.0 µM): 0.295% | inhibition ([9]; compound 10.0 µM): 5.49% | inhibition [10]: 30.7% | inhibition [11]: 6.88% | inhibition [12]: 39.5% | inhibition [13]: 23.7% | inhibition ([14]; compound 10.0 µM): 6.95% | inhibition ([15]; compound 10.0 µM): 44.5% | inhibition ([16]; compound 10.0 µM): 0.682% | inhibition ([17]; compound 10.0 µM): 0.146% | inhibition ([18]; compound 10.0 µM): 9.89% | inhibition ([19]; compound 10.0 µM): 4.09% | inhibition ([20]; compound 10.0 µM): 18.4% | inhibition [21]: 81.3% | inhibition ([22]; compound 10.0 µM): -5.32% | inhibition ([23]; compound 10.0 µM): -1.85% | inhibition ([24]; compound 10.0 µM): -17.1% | inhibition [25]: 40.2% | inhibition [26]: 19.3% | inhibition ([27]; compound 10.0 µM): 4.67% | inhibition ([28]; compound 10.0 µM): 13.5% | inhibition ([29]; compound 10.0 µM): 8.21% | inhibition [30]: 53.7% | inhibition ([31]; compound 10.0 µM): 5.89% | inhibition [32]: -2.65% | inhibition ([33]; compound 10.0 µM): -1.79% | inhibition ([34]; compound 10.0 µM): 15.9% | inhibition ([35]; compound 10.0 µM): 5.94% | inhibition [36]: 11.8% | inhibition [37]: 55.8% | inhibition ([38]; compound 10.0 µM): 16.4% | inhibition ([39]; compound 10.0 µM): -24.1% | inhibition ([40]; compound 10.0 µM): 18.1% | inhibition [41]: 71% | inhibition ([42]; compound 10.0 µM): 11.2%
Compound: C[C@@H](Nc1c(C#N)cnc2cc(-c3ccc(N4CCOC4=O)cc3)ccc12)C1CC1

inhibition ([4]; compound 1.0 µM): 9.66% | inhibition ([8]; compound 1.0 µM): 11.7% | inhibition ([15]; compound 1.0 µM): 15.5% | inhibition ([16]; compound 1.0 µM): 27.6% | inhibition ([18]; compound 1.0 µM): 29.4% | inhibition ([19]; compound 1.0 µM): 16.5% | inhibition ([20]; compound 1.0 µM): 25.5% | inhibition ([22]; compound 1.0 µM): 7.1% | inhibition ([23]; compound 1.0 µM): 9.79% | inhibition ([24]; compound 1.0 µM): -11.1% | inhibition ([27]; compound 1.0 µM): 33.4% | inhibition ([28]; compound 1.0 µM): -1.66% | inhibition ([31]; compound 1.0 µM): 13.5% | inhibition ([33]; compound 1.0 µM): 19.4% | inhibition ([34]; compound 1.0 µM): 33.5% | inhibition ([35]; compound 1.0 µM): 3.26% | inhibition ([38]; compound 1.0 µM): 11.8% | inhibition ([39]; compound 1.0 µM): 3.38% | inhibition ([42]; compound 1.0 µM): -3.76%
Compound: CC(C)Nc1c(C#N)cnc2cc(-c3ccc(S(C)(=O)=O)cc3)ccc12

IC50 [1]: 70 nM | IC50 [2]: 50 nM | inhibition ([4]; compound 1.0 µM): -0.488% | inhibition ([6]; compound 1.0 µM): 27.5% | inhibition ([8]; compound 1.0 µM): 5.33% | inhibition ([9]; compound 1.0 µM): 12.4% | inhibition ([14]; compound 1.0 µM): 4.52% | inhibition ([17]; compound 1.0 µM): 1.29% | inhibition ([19]; compound 1.0 µM): 2.9% | inhibition ([23]; compound 1.0 µM): -2.05% | inhibition ([24]; compound 1.0 µM): 4.47% | inhibition ([29]; compound 1.0 µM): 23.6% | inhibition ([31]; compound 1.0 µM): 11.5% | inhibition ([33]; compound 1.0 µM): -7.3% | inhibition ([34]; compound 1.0 µM): 12.2% | inhibition ([35]; compound 1.0 µM): 12.4% | inhibition ([38]; compound 1.0 µM): 14.2% | inhibition ([39]; compound 1.0 µM): 10.1% | inhibition ([40]; compound 1.0 µM): 15.4% | inhibition ([42]; compound 1.0 µM): -8.51%
Compound: CC(C)Nc1c(C#N)cnc2cc(-c3cnn(C)c3)ccc12
